Laboratory results as given in patent US4439426A, “Semisynthetic macrolidic antibiotics, intermediate compounds for their preparation and related pharmaceutical compositions containing them” (priority 1981, dated 1984).
In brackets after ≈: the same amount, converted by molar mass. Several values for one entry are separate records, joined by “and”; a condition that tells them apart may be missing. Identical values can stand only once. Like-named read-outs stand apart in the source and are kept apart here.

Key:
Salmonella typhy LRP 8 = test: microbe, parasite or virus in culture; assay type: cell-based; conditions: LRP8, solid medium, read-out: Minimum inhibiting concentration
In short: (§1)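 Minimum concentration preventing growth is given for every organism; the collection included anaerobes as well as aerobes, with both Gram types represented.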

[1] = tested on: Clostridium perfrigens ATCC 3624 LRP 206; test: microbe, parasite or virus in culture; assay type: cell-based; conditions: ATCC3624, read-out: Minimum inhibiting concentration
In short: as §1

[2] = Serum concentrations in the rat after oral administration; assay type: in vivo; conditions: 100 mg/kg per os
Method: administration of 100 mg/kg per os. The values, at the
several sampling times, correspond to mcg of product per ml of serum*.

[3] = Stability in acidic environment at 25° C. (half-life of initial microbiological activity); assay type: physicochemical; conditions: aqueous solution, read-out: t 1/2 (converted)
Method: Stability in acidic environnment at 25° C. of the novel
Note: t 1/2 represents the time for reducing to one half the initial powe
of the antibiotic determined by microbiological method through diffusion
on a plate using the test stock Microccocus luteus (Sarcina lutea) ATCC

[4] = tested on: Streptococcus pneumoniae ATCC 6303 LRP 35; test: Minimum bactericidal concentration (MBC); assay type: cell-based
Excerpt: (§2) the bacterial power, expressed as the minimum bactericidal power (MBC) against some Gram positive aerobic stocks (table 5).

[5] = tested on: Streptococcus pyogenes ATCC 8668 LRP 34; test: Minimum bactericidal concentration (MBC); assay type: cell-based
Excerpt: as §2

[6] = tested on: Staphylococcus aureus ATCC 6538 P LRP 39; test: Minimum bactericidal concentration (MBC); assay type: cell-based
Excerpt: as §2

[7] = tested on: Streptococcus faecalis subs. zymogenes LRP 61; test: Minimum bactericidal concentration (MBC); assay type: cell-based
Excerpt: as §2

[8] = tested on: Corynebacterium diphteriae LRP 24; test: Minimum bactericidal concentration (MBC); assay type: cell-based
Excerpt: as §2

[9] = tested on: Staphylococcus aureus ATCC 6538P LRP 14; test: Bacteriostatic power in solid medium (MIC); assay type: cell-based; conditions: Staphylococcus aureus, ATCC6538P, read-out: Minimum inhibiting concentration
In short: as §1

[10] = tested on: Streptococcus pneumoniae ATCC 6303 LRP 35; test: Bacteriostatic power in solid medium (MIC); assay type: cell-based; conditions: Streptococcus pneumoniae, ATCC6303, read-out: Minimum inhibiting concentration
In short: as §1

[11] = tested on: Proteus vulgaris ATCC 6380 LRP 13; test: Bacteriostatic power in solid medium (MIC); assay type: cell-based; conditions: Proteus vulgaris, ATCC6380, read-out: Minimum inhibiting concentration
In short: as §1

[12] = tested on: Streptococcus pyogenes ATCC 8668 LRP 197; test: Bacteriostatic power in solid medium (MIC); assay type: cell-based; conditions: Streptococcus pyogenes, ATCC8668, read-out: Minimum inhibiting concentration
In short: as §1

[13] = tested on: Haemophilus influenzae ATCC 19418 LRP 213; test: Bacteriostatic power in solid medium (MIC); assay type: cell-based; conditions: Haemophilus influenzae, ATCC19418, read-out: Minimum inhibiting concentration
In short: as §1

[14] = tested on: Streptococcus pyogenes ATCC 8668 LRP 34; test: Bacteriostatic power in solid medium (MIC); assay type: cell-based; conditions: Streptococcus pyogenes, ATCC8668, read-out: Minimum inhibiting concentration
In short: as §1

[15] = tested on: Streptococcus faecalis LRP 7; test: Bacteriostatic power in solid medium (MIC); assay type: cell-based; conditions: Enterococcus faecalis, LRP7, read-out: Minimum inhibiting concentration
In short: as §1

[16] = tested on: Bacteroides fragilis ATCC 23745 LRP 205; test: Bacteriostatic power in solid medium (MIC); assay type: cell-based; conditions: Bacteroides fragilis, ATCC23745, read-out: Minimum inhibiting concentration
In short: as §1

Escherichia coli LRP 50 = test: Bacteriostatic power in solid medium (MIC); assay type: cell-based; conditions: Escherichia coli, LRP50, read-out: Minimum inhibiting concentration
In short: as §1

[17] = tested on: Staphylococcus aureus ATCC 6538P LRP 39; test: Bacteriostatic power in solid medium (MIC); assay type: cell-based; conditions: Staphylococcus aureus, ATCC6538P, read-out: Minimum inhibiting concentration
In short: as §1

[18] = tested on: Klelsiella pneumoniae LRP 54; test: Bacteriostatic power in solid medium (MIC); assay type: cell-based; conditions: read-out: Minimum inhibiting concentration
In short: as §1

[19] = tested on: Pseudomonas aeruginosa LRP 9; test: Bacteriostatic power in solid medium (MIC); assay type: cell-based; conditions: Pseudomonas aeruginosa, LRP9, read-out: Minimum inhibiting concentration
In short: as §1

[20] = tested on: Streptococcus pneumoniae ATCC 6303 LRP 53; test: Bacteriostatic power in solid medium (MIC); assay type: cell-based; conditions: Streptococcus pneumoniae, ATCC6303, read-out: Minimum inhibiting concentration
In short: as §1

[21] = tested on: Staphylococcus aureus ATCC 14154 LRP 78; test: Bacteriostatic power in solid medium (MIC); assay type: cell-based; conditions: Staphylococcus aureus, ATCC14154, read-out: Minimum inhibiting concentration
In short: as §1

[22] = tested on: Micrococcus luteus ATCC 15957 LRP 193; test: Bacteriostatic power in solid medium (MIC); assay type: cell-based; conditions: Micrococcus luteus, ATCC15957, read-out: Minimum inhibiting concentration
In short: as §1

[23] = tested on: Corynebacterium diphteriae LRP 24; test: Bacteriostatic power in solid medium (MIC); assay type: cell-based; conditions: Corynebacterium, LRP24, read-out: Minimum inhibiting concentration
In short: as §1

[24] = tested on: Micrococcus luteus ATCC 9341 LRP 6; test: Bacteriostatic power in solid medium (MIC); assay type: cell-based; conditions: Micrococcus luteus, ATCC9341, read-out: Minimum inhibiting concentration
In short: as §1

[25] = tested on: Acholeplasma laidlawii ATCC 23206 LRP 204; test: Bacteriostatic power in solid medium (MIC); assay type: cell-based; conditions: Acholeplasma laidlawii, ATCC23206, read-out: Minimum inhibiting concentration
In short: as §1

Shigella sonnei LRP 5 = test: Bacteriostatic power in solid medium (MIC); assay type: cell-based; conditions: LRP5, read-out: Minimum inhibiting concentration
In short: as §1

[26] = tested on: Streptococcus faecalis subsp. zymogenes ATCC 12958 LRP 61; test: Bacteriostatic power in solid medium (MIC); assay type: cell-based; conditions: Enterococcus faecalis, ATCC12958, read-out: Minimum inhibiting concentration
In short: as §1

Bacillus subtilis LRP 25 = test: Bacteriostatic power in solid medium (MIC); assay type: cell-based; conditions: Bacillus subtilis, LRP25, read-out: Minimum inhibiting concentration
In short: as §1

[27] = tested on: Fusobacteriumnecrophroum ATCC 27852 LRP 210; test: Bacteriostatic power in solid medium (MIC); assay type: cell-based; conditions: read-out: Minimum inhibiting concentration
In short: as §1

[28] = tested on: Streptococcus pneumoniae ATCC 6303 LRP 52; test: Bacteriostatic power in solid medium (MIC); assay type: cell-based; conditions: Streptococcus pneumoniae, ATCC6303, read-out: Minimum inhibiting concentration
In short: as §1

[29] = tested on: Neisseria gonorrhoeae ATCC 19424 LRP 214; test: Bacteriostatic power in solid medium (MIC); assay type: cell-based; conditions: Neisseria gonorrhoeae, ATCC19424, read-out: Minimum inhibiting concentration
In short: as §1

Compound: CC[C@H]1OC(=O)[C@H](C)[C@@H](O[C@H]2C[C@@](C)(OC)[C@@H](O)[C@H](C)O2)[C@H](C)[C@@H](O[C@@H]2O[C@H](C)C[C@H](N(C)C)[C@H]2O)[C@](C)(O)C[C@](C)(F)C(=O)[C@H](C)[C@@H](O)[C@]1(C)O [P-80206, (8S)-8-fluoroerythromycin A]
- MIC (Salmonella typhy LRP 8): 12.5 µg/mL (≈ 16.6 µM)
- MIC [1]: 0.78 µg/mL (≈ 1.04 µM)
- Serum concentration, individual rat ([2]; 0.5 hours, 30 min): 0.078 mcg of product per ml of serum and 0.198 mcg of product per ml of serum and 0.630 mcg of product per ml of serum and 0.487 mcg of product per ml of serum and 1.105 mcg of product per ml of serum and 1.333 mcg of product per ml of serum
- Serum concentration, individual rat ([2]; 1 hour, 60 min): 8.505 mcg of product per ml of serum and 0.880 mcg of product per ml of serum and 1.273 mcg of product per ml of serum and 1.251 mcg of product per ml of serum and 1.714 mcg of product per ml of serum and 0.531 mcg of product per ml of serum
- Serum concentration, individual rat ([2]; 2 hours, 120 min): 3.712 mcg of product per ml of serum and 6.516 mcg of product per ml of serum and 3.510 mcg of product per ml of serum and 6.907 mcg of product per ml of serum and 6.601 mcg of product per ml of serum and 7.195 mcg of product per ml of serum
- Serum concentration, individual rat ([2]; 4 hours, 240 min): 1.792 mcg of product per ml of serum and 2.134 mcg of product per ml of serum and 1.270 mcg of product per ml of serum and 2.817 mcg of product per ml of serum and 2.362 mcg of product per ml of serum and 2.115 mcg of product per ml of serum
- Serum concentration, individual rat ([2]; 6 hours, 360 min): 0.867 mcg of product per ml of serum and 0.393 mcg of product per ml of serum and 1.192 mcg of product per ml of serum and 1.792 mcg of product per ml of serum and 1.620 mcg of product per ml of serum and 1.147 mcg of product per ml of serum
- concentration at 0.5 h ([2]; rat, in vivo, po, 100 mg/kg, 0.5 hours, read-out: Serum concentration, average): 638 ng/mL
- concentration at 1 h ([2]; rat, in vivo, po, 100 mg/kg, 1 hour, read-out: Serum concentration, average): 2360 ng/mL
- concentration at 2 h ([2]; rat, in vivo, po, 100 mg/kg, 2 hours): 5740 ng/mL
- concentration at 4 h ([2]; rat, in vivo, po, 100 mg/kg, 4 hours, read-out: Serum concentration, average): 2080 ng/mL
- concentration at 6 h ([2]; rat, in vivo, po, 100 mg/kg, 6 hours, read-out: Serum concentration, average): 1170 ng/mL
- half-life ([3]; pH 2.0, 25° C.): 9 h
- half-life ([3]; pH 3.0, 25° C.): 82.5 h
- MBC/MIC [4]: 4
- MBC ([4]; Streptococcus pneumoniae, ATCC6303, read-out: Minimum bactericidal concentration (MBC)): 0.195 µg/mL (≈ 0.259 µM)
- MBC/MIC [5]: 8
- MBC ([5]; Streptococcus pyogenes, ATCC8668, read-out: Minimum bactericidal concentration (MBC)): 0.78 µg/mL (≈ 1.04 µM)
- MBC/MIC [6]: 16
- MBC ([6]; Staphylococcus aureus, ATCC6538, read-out: Minimum bactericidal concentration (MBC)): 3.12 µg/mL (≈ 4.15 µM)
- MBC/MIC [7]: 16
- MBC ([7]; Enterococcus faecalis, read-out: Minimum bactericidal concentration (MBC)): 6.25 µg/mL (≈ 8.31 µM)
- MBC/MIC [8]: 8
- MBC ([8]; Corynebacterium, LRP24, read-out: Minimum bactericidal concentration (MBC)): 0.097 µg/mL (≈ 0.129 µM)
- MIC [9]: 0.097 µg/mL (≈ 0.129 µM)
- MIC [10]: 0.024 µg/mL (≈ 0.0319 µM)
- MIC [11]: 25 µg/mL (≈ 33.2 µM)
- MIC [12]: 0.012 µg/mL (≈ 0.016 µM)
- MIC [13]: 3.12 µg/mL (≈ 4.15 µM)
- MIC [14]: 0.012 µg/mL (≈ 0.016 µM)
- MIC [15]: 0.195 µg/mL (≈ 0.259 µM)
- MIC [16]: 0.195 µg/mL (≈ 0.259 µM)
- MIC (Escherichia coli LRP 50): 12.5 µg/mL (≈ 16.6 µM)
- MIC [17]: 0.097 µg/mL (≈ 0.129 µM)
- MIC [18]: 12.5 µg/mL (≈ 16.6 µM)
- MIC [19]: 25 µg/mL (≈ 33.2 µM)
- MIC [20]: 0.024 µg/mL (≈ 0.0319 µM)
- MIC [21]: 25 µg/mL (≈ 33.2 µM)
- MIC [22]: 25 µg/mL (≈ 33.2 µM)
- MIC [23]: 0.012 µg/mL (≈ 0.016 µM)
- MIC [24]: 0.006 µg/mL (≈ 0.00798 µM)
- MIC [25]: 0.097 µg/mL (≈ 0.129 µM)
- MIC (Shigella sonnei LRP 5): 25 µg/mL (≈ 33.2 µM)
- MIC [26]: 0.195 µg/mL (≈ 0.259 µM)
- MIC (Bacillus subtilis LRP 25): 0.049 µg/mL (≈ 0.0652 µM)
- MIC [27]: 1.56 µg/mL (≈ 2.07 µM)
- MIC [28]: 0.024 µg/mL (≈ 0.0319 µM)
- MIC [29]: 0.049 µg/mL (≈ 0.0652 µM)
